Results from patent US6596772B1, “Phosphate mimics and methods of treatment using phosphatase inhibitors” (Sugen, Inc., priority 1999, dated 2003).
Read-outs that look alike come from different tables or passages of the source.

Key:
Assay in all cases: PTP IC50 assay, pNPP or FDP as substrate
Type in all cases: biochemical
[1] = target: T1, PTP EPSILON (Homo sapiens, UniProt P23469)
T1 construct: made in house; host or cells: Sf-9 insect cells (pFastBac-G2T); a pGEX 6P-1 construct also existed
Procedure: (§1) The following in vitro assay procedure is preferred to determine the level of activity and effect of the different compounds of the present invention on one or more of the PTPs. Similar assays can be designed along the same lines for any PTP using techniques well known in the art.
(§2) The catalytic assays described herein are performed in a 96-well format. The general procedure begins with the determination of PTP optimal pH using a three-component buffer system that minimizes ionic strength variations across a wide range of buffer pH. Next, the Michaelis-Menten constant, or Km, is determined for each specific substrate-PTP system. This Km value is subsequently used as the substrate reaction concentration for compound screening. Finally, the test PTP is exposed to varying concentrations of compound for fifteen minutes and allowed to react with substrate for ten minutes. The results are plotted as percent inhibition versus compound concentration and the IC50 interpolated from the plot.
(§3) All assays were performed using pNPP or FDP as substrate. The optimum pH was determined for each PTP used.
(§4) PTPase activity was assayed at 25° C. in a 100-μl reaction mixture containing an appropriate concentration of pNPP or FDP as substrate. The reaction was initiated by addition of the PTP and quenched after 10 min by addition of 50 μl of IN NaOH. The non-enzymatic hydrolysis of the substrate was corrected by measuring the control without the addition of the enzyme. The amount of p-nitrophenol produced was determined from the absorbance at 410 nm. To determine the kinetic parameter, Km, the initial velocities were measured at various substrate concentrations and the data were fitted to the Michaelis equation where velocity=(Vmax*[S])/(Km+[S]), and [S]=substrate reaction concentration.
(§5) The effect of the compounds on PTP was evaluated at 25° C. using pNPP or FDP as substrate. PTP was pre-incubated for fifteen minutes with various concentrations of compound. Substrate was then added at a fixed concentration (usually equal to the Km previously calculated). After 10 minutes, NaOH was added to stop the reaction. The hydrolysis of pNPP was followed at 410 nm on the Biotek Powerwave 200 microplate scanning spectrophotometer. The percent inhibition was calculated as follows: Percent Inhibition=[(control signal−compound signal)/control signal] ×100%. The IC50 was then determined by interpolation of a percent inhibition versus compound concentration plot.
(§6) Plasmids designed for bacterial GST-PTP fusion protein expression were derived by insertion of PCR-generated human PTP fragments into pGEX vectors (Pharmacia Biotech). Several of these constructs were then used to subclone phosphatases into pFastBac-1for expression in Sf-9 insect cells. Oligonucleotides used for the initial amplification of PTP genes are shown below. The cDNAs were prepared using the Gilbo BRL superscript preamplification system on RNAs purchased from Clontech.
The PTPepsilon cDNA was amplified from human placenta single-strand cDNA (Clontech RNA) using the following oligonucleotides: 5′oligo: 5′-[…]-3′ (SEQ ID NO: 6) 3′oligo: 5′-[…]-3′ (SEQ ID NO: 7) After cloning this PCR product into the Bam HI/Xho I sites of pGEX 6P-1, this phosphatase was subcloned using the same restriction sites in pFastBac-G2T.

[2] = target: T2, PTP MEG2 (Homo sapiens, UniProt P43378)
T2 construct: made in house; host or cells: E. coli BL-21 (pGEX 6P-1)
T2 sequence (P43378 262-593 limits assumed): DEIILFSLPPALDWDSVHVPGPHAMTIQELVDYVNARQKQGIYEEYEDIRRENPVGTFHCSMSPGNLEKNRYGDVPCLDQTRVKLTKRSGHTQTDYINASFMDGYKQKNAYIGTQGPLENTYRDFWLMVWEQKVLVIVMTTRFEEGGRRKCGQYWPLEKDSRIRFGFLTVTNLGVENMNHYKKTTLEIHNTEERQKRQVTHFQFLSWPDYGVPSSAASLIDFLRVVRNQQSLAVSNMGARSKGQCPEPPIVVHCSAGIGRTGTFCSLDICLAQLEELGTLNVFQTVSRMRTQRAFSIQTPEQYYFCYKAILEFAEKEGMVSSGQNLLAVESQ
Procedure: as §1, §2, §3, §4, §5, §6
The PTP MEG2 cDNA was amplified from human placenta single strand cDNA (Clontech RNA) using the following oligonucleotides: 5′oligo: 5′-[…]-3′ (SEQ ID NO: 8) 3′oligo: 5′-[…]-3′ (SEQ ID NO: 9) and subsequently ligated into pGex 6P-1 Eco RI/Xho I sites.

[3] = target: T3, PTP ALPHA (Homo sapiens, UniProt P18433); settings: 25° C.
T3 construct: RTPα intracellular domain construct was obtained; made in house; host or cells: E. coli BL-21 (pGEX 3X)

[4] = target: T4, PTP BETA (Homo sapiens, UniProt P23467)
T4 construct: The catalytic domain was amplified using the following oligonucleotides; made in house; host or cells: E. coli BL-21 (pGEX 6P-1)
Procedure: as §1, §2, §3, §4, §5, §6
The PTP Beta cDNA used has been described earlier (Levy et al., 1993, J. Biol. Chem, 268:10573-10581). The catalytic domain was amplified using the following oligonucleotides: 5′oligo: 5′-[…]-3′ (SEQ ID NO: 16) 3′oligo: 5′-[…]-3′ (SEQ ID NO: 17) and subsequently cloned into the Eco RI/Xho I sites of pGEX 6P-1.

[5] = pNPP or FDP as substrate, 25° C., read-out: PTP IC50 Epilson
[6] = pNPP or FDP as substrate, 25° C., read-out: PTP IC50 MEG2
[7] = pNPP or FDP as substrate, 25° C., read-out: PTP IC50 Beta

T1 sequence (P23469 80-393 limits assumed): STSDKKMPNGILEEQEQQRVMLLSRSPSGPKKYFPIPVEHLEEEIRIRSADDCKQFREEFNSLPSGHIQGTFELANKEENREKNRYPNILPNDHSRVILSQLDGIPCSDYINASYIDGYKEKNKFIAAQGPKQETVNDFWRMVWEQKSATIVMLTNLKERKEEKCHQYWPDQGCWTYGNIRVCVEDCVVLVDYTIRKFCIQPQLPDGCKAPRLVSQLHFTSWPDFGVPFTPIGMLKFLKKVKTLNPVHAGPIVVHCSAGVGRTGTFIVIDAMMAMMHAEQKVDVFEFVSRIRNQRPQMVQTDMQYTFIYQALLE
T4 sequence (P23467 1653-1997): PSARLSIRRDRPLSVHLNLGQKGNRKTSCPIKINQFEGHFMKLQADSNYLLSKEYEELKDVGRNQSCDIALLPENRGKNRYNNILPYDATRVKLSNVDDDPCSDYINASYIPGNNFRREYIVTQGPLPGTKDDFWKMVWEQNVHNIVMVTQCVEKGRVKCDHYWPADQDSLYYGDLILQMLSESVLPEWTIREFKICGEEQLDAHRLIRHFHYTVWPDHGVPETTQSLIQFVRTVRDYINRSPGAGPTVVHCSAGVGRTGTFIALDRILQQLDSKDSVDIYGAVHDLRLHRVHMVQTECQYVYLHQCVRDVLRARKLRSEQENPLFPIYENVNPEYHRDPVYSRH

Compound: O=S(=O)(Nc1ccc(CCc2ccc(NS(=O)(=O)C(F)(F)F)cc2)cc1)C(F)(F)F [Example 66, 1,2-Bis(4-trifluoromethylsulfonamidophenyl)ethane]
- IC50 [1, 5]: > 100 µM
- IC50 [2, 6]: > 100 µM
- IC50 [3]: > 100 µM
- IC50 [4, 7]: 39.9 µM

Compound: Cc1cc(NS(=O)(=O)C(F)(F)F)ccc1CCc1ccc(NS(=O)(=O)C(F)(F)F)cc1C [Example 67, 1,2-Bis(2-methyl-4-trifluoromethylsulfonamidophenyl)ethane]
- IC50 [1, 5]: 50.8 µM
- IC50 [2, 6]: 85.7 µM
- IC50 [3]: 53.6 µM
- IC50 [4, 7]: 55.9 µM

Compound: CC(C)(COc1ccc(NS(=O)(=O)C(F)(F)F)cc1)COc1ccc(NS(=O)(=O)C(F)(F)F)cc1 [Example 68, 1,3-Bis(4-trifluoromethylsulfonamidophenoxy)-2,2-dimethylpropane]
- IC50 [1, 5]: 37 µM
- IC50 [2, 6]: 34.4 µM
- IC50 [3]: 27 µM
- IC50 [4, 7]: 15.2 µM

Compound: O=S(=O)(Nc1ccc(OCCCOc2ccc(NS(=O)(=O)C(F)(F)F)cc2)cc1)C(F)(F)F [Example 69, 1,3-Bis(4-trifluoromethylsulfonamidophenoxy)propane]
- IC50 [1, 5]: 40.7 µM
- IC50 [2, 6]: > 100 µM
- IC50 [3]: 31 µM
- IC50 [4, 7]: > 100 µM

Compound: O=S(=O)(Nc1ccc(OCCCCOc2ccc(NS(=O)(=O)C(F)(F)F)cc2)cc1)C(F)(F)F [Example 70, 1,4-Bis(4-trifluoromethylsulfonamidophenoxy)butane]
- IC50 [1, 5]: 48.4 µM
- IC50 [2, 6]: 70.7 µM
- IC50 [3]: 46 µM
- IC50 [4, 7]: 7 µM

Compound: O=S(=O)(Nc1ccc(Oc2ccc(Oc3ccc(NS(=O)(=O)C(F)(F)F)cc3)cc2)cc1)C(F)(F)F [Example 71, 1,4-Bis(4-trifluoromethylsulfonamidophenoxy)benzene]
- IC50 ([1]; comparison of R groups, read-out: IC50 Epsilon): 16.9 µM
- IC50 [1, 5]: 16.9 µM
- IC50 ([2]; comparison of R groups, read-out: IC50 MEG2): 39.4 µM
- IC50 [2, 6]: 39.4 µM
- IC50 [3]: 11.9 µM
- IC50 ([4]; comparison of R groups, read-out: IC50 Beta): 12.1 µM
- IC50 [4, 7]: 12.1 µM
